{"source": "patent US20110038856A1", "about": "“METHODS OF TREATING NEOPLASTIC, AUTOIMMUNE AND INFLAMMATORY DISEASES” (Seattle Genetics, Inc., priority 2006, published 2011)", "key": {"HEL 92.1.7 cells": {"test_system": "HEL 92.1.7 cells", "test": "Complement-dependent cytotoxicity (CDC) on MDR+ CD33-positive AML cell line", "assay_type": "cell-based, human", "conditions": "HEL 92.1.7 cells; FIG. 4", "protocol": "The purpose of this study was to determine whether the cytotoxic effects of an anti-CD33 antibody (HuM195) on AML cells could be enhanced by combination treatment with chemotherapeutic drugs. An MDR^+, CD33-positive AML cell line (HEL 92.1.7) was either untreated or preincubated with the indicated concentrations of thalidomide or 5-azacytidine for two hours prior to exposure to the anti-CD33 Ab. Cytotoxic activity was measured using a complement-dependent cytotoxicity (CDC) activity."}, "[1]": {"test_system": "primary human macrophages", "test": "Cytokine/chemokine production by primary human macrophages", "assay_type": "cell-based", "conditions": "for production of IL-6, TNF-α, RANTES, and MCP-1: pre-incubation 3 hours with antibody, 24 hours", "protocol": "Primary human macrophages were generated from long-term cultures of freshly isolated human peripheral blood mononuclear cells (PBMCs; AllCells, Emeryville, Calif. or LifeBlood, Memphis, Tenn.). PBMCs were cultured in tissue culture flasks in RPMI 1640 medium containing glutamine (Invitrogen, Grand Island, N.Y.), 10% heat-inactivated FBS, and antibiotics for 3 to 4 hours. Non-adherent cells were removed by washing with PBS and the adherent cells were cultured in OptiMem-1 medium (Invitrogen) containing 1% heat-inactivated FBS for 1 to 2 hours. The cells were washed with PBS and cultured for 10 to 14 days in X-VIVO-15 medium (Cambrex Bio Science, Walkersville, Md.) containing 500 U/ml GM-CSF (Peprotech, Rocky Hill, N.J.). […]"}, "human CD14+ monocytes": {"test_system": "human CD14+ monocytes", "test": "Cytokine/chemokine production by primary human CD14+ monocytes", "assay_type": "cell-based"}, "KG-1 AML cell line": {"test_system": "KG-1 AML cell line", "test": "Cytokine production by KG-1 AML cell line", "assay_type": "cell-based", "conditions": "2.5 μg/ml pre-treatment, then 1 ng/ml TNF-alpha; media harvested 18 h later; versus control antibody", "protocol": "Media was harvested 18 h later for cytokine analyses."}, "HL-60 cells": {"test_system": "HL-60 cells", "test": "Mouse AML model, HL-60 cells injected intravenously", "assay_type": "in vivo, mice", "conditions": "q4d×5, ip, FIG. 24", "protocol": "Mice were implanted with an AML cell line, HL-60, as follows: 5 million HL-60 cells were injected intravenously. The mice were treated with lintuzumab (10 mg/kg, q4d×4, ip), cytarabine (1 mg/kg, 5 mg/kg or 25 mg/kg, q1d×10, or 50 mg/kg or 100 mg/kg, q2d×5, ip) or lintuzumab with cytarabine (dosed as described previously). Treatment began on day one.\nTo confirm the data of the in vitro study, mice were implanted with an AML cell line, HL-60, as follows: 5 million HL-60 cells were injected intravenously. […] Treatment began on day one."}, "[2]": {"test_system": "primary human macrophages", "procedure": "(§1) Macrophages were harvested, counted, and cultured in 96-well plates at 35,000 cells per well. G-CSF-mobilized CD14^+ monocytes (Cambrex) were cultured in 96-well plates at 100,000 cells per well (adherent cells) in sterile polypropylene dishes (non-adherent cells)."}, "[3]": {"test_system": "primary human CD14+ monocytes", "procedure": "as §1"}, "[4]": {"test_system": "patients with relapsed and refractory acute myeloid leukemia (AML)", "conditions": "low dose with infrequent administration; cited from earlier work"}, "[5]": {"test_system": "patients with advanced myeloid malignancies (AML, MDS, CMML)", "test": "Phase 1 single-arm dose escalation trial in patients with advanced myeloid malignancies", "procedure": "Entry criteria included CD33 expression on >50% of the marrow blasts to ensure that adequate target antigen was present. […] Clinical response was assessed by bone marrow morphology and hematologic improvement. […] Among AML patients, 6 had antecedent hematologic disorder. Dosing cohorts included 1.5 (6), 2.5 (4), 4 (4), and 8 mg/kg (17)."}, "CD33 [6]": {"molecular_target": "T1, CD33 (Homo sapiens, UniProt P20138)", "T1 sequence (P20138 18-364)": "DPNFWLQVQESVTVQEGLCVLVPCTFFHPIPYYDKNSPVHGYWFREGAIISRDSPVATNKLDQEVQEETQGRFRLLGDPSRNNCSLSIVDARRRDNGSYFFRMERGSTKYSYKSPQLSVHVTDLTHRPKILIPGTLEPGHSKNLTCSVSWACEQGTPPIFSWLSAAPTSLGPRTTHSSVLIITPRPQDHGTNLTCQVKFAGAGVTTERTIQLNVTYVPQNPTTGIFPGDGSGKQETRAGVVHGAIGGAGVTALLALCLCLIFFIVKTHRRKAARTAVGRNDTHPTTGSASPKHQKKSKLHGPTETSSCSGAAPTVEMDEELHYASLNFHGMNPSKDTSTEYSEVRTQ", "test": "CD33 tyrosine phosphorylation in CD33-positive AML lines (CD33 immunoprecipitation, anti-phosphotyrosine Western blot)", "assay_type": "cell-based", "set-up": "endogenous in cells; host or cells: HL-60 (ATCC); primary human CD14+ monocytes (Cambrex); macrophages derived from human PBMCs", "protocol": "CD33-positive cell lines were treated with anti-CD33 antibodies (lintuzumab and certain commercially available antibodies). Cell extracts were prepared and CD33 was immunoprecipitated using an anti-CD33 antibody (MY9 clone; Beckman Coulter, Calif.). Western blotting was performed with an anti-phosphotyrosine antibody (4G10; Upstate Biotechnologies, Inc., Lake Placid, N.Y.). […] Two forms of CD33 were detected (due to either splicing of CD33 mRNA or post-translational modification of CD33)."}, "CD33 [7]": {"molecular_target": "T1, CD33", "test": "Recruitment of SHP phosphatases / Syk to CD33 in HL-60 cells (immunoprecipitation, Western blot)", "assay_type": "cell-based", "set-up": "endogenous in cells; host or cells: HL-60 (ATCC); primary human CD14+ monocytes (Cambrex); macrophages derived from human PBMCs", "protocol": "To determine whether the humanized M195 antibody also recruits SHP phosphatases, HL-60 cells were treated with soluble or cross-linked anti-CD33 antibodies. Cell extracts were prepared and CD33 was immunoprecipitated with an anti-CD33 antibody (MY9 clone). Western blotting was performed with an anti-SHP-1 antibody (sc-287; Santa Cruz Biotechnology, Inc., Santa Cruz, Calif.)."}}, "data": [{"substance": "SGN-33: anti-CD33 antibody, a humanized version of mouse monoclonal antibody M195", "values": [{"measurement": "lysis of AML cells (CDC activity)", "setting": "HEL 92.1.7 cells", "result": "increased lysis of AML cell lines in a dose-dependent manner"}, {"measurement": "levels of IL-6, TNF-α, MCP-1, and RANTES", "setting": "[1]; macrophages treated 1 h prior to IFN-γ, LPS, or TGF-β, supernatants 18 h later, FIG. 18", "result": "significantly reduced"}, {"measurement": "production of IL-6, TNF-α, RANTES, and MCP-1", "setting": "[1]; in response to IFN-γ, FIG. 6", "result": "reduced production"}, {"measurement": "production of IL-6, TNF-α, RANTES, and MCP-1", "setting": "[1]; in response to conditioned media from RPMI-8226 and Karpus-620 cells, FIG. 7", "result": "reduced production"}, {"measurement": "levels of TNF-α", "setting": "[1]; primary human macrophages, various doses of SGN-33, 1 hr prior to IFN-γ, 18 h, p<0.05, FIG. 20", "result": "significantly reduced levels of TNF-α in a dose-dependent manner"}, {"measurement": "production of IL-6, TNF-α, MCP-1, IL-8, and RANTES", "setting": "human CD14+ monocytes; CD14+ primary human monocytes activated with IFN-γ, previous studies (Example 3)", "result": "significantly reduced"}, {"measurement": "level of RANTES", "setting": "human CD14+ monocytes; adherent CD14+ monocytes, IFN-γ stimulated, FIG. 10", "result": "reduced"}, {"measurement": "level of RANTES", "setting": "human CD14+ monocytes; adherent CD14+ monocytes, RPMI-8228 conditioned media stimulated, FIG. 11", "result": "reduced"}, {"measurement": "level of TNF-α", "setting": "human CD14+ monocytes; adherent CD14+ monocytes, basal level, FIG. 11", "result": "reduced the basal level"}, {"measurement": "levels of IL-6, MCP-1, TNF-α, and IL-8", "setting": "human CD14+ monocytes; adherent CD14+ monocytes, basal levels and IFN-γ stimulated levels, 48 hours, FIG. 10", "result": "reduced"}, {"measurement": "levels of IL-6, MCP-1, and IL-8", "setting": "human CD14+ monocytes; adherent CD14+ monocytes, basal levels and RPMI-8228 conditioned media stimulated levels, FIG. 11", "result": "reduced"}, {"measurement": "levels of IL-6, IL-8, TNF-α and MCP-1", "setting": "human CD14+ monocytes; non-adherent CD14+ monocytes upon exposure to SGN-33, FIG. 12", "result": "small increases"}, {"measurement": "production of cytokines, chemokines and growth factors", "setting": "human CD14+ monocytes; non-adherent CD14+ monocytes, IFN-γ, FIG. 12", "result": "not inhibited"}, {"measurement": "levels of IL-6, MCP-1, IL8 and RANTES", "setting": "human CD14+ monocytes; non-adherent CD14+ monocytes, stimulated by RPMI-8226 conditioned media, FIG. 12", "result": "reduced"}, {"measurement": "IFN-γ-stimulated production of IL-10, IL-10, IL-12, and MIP-1α", "setting": "human CD14+ monocytes; primary human monocytes treated 1 hr prior to IFN-γ, supernatants 18 h later, p<0.001, FIG. 19", "result": "significantly reduced"}, {"measurement": "levels of TNF-α", "setting": "human CD14+ monocytes; primary human monocytes, various doses of SGN-33, 1 hr prior to IFN-γ, 18 h, p<0.05, FIG. 20", "result": "significantly reduced levels of TNF-α in a dose-dependent manner"}, {"measurement": "production of IL-8, IP-10, M11b, RANTES, and MCP-1", "setting": "KG-1 AML cell line", "result": "reduced the production"}, {"measurement": "survival rate", "setting": "HL-60 cells; SGN-33 30 mg/kg", "result": "~85", "unit": "%"}, {"measurement": "survival rate", "setting": "HL-60 cells; SGN-33 3 or 10 mg/kg", "result": "~50", "unit": "%"}, {"measurement": "cell viability", "setting": "[2]", "result": "without interfering with cell viability"}, {"measurement": "cell viability", "setting": "[3]", "result": "not due to an adverse effect"}, {"measurement": "blast cells", "setting": "[4]", "result": "induced significant reductions in blast cells"}, {"measurement": "tolerability", "setting": "[5]; 1.5 mg/kg/wk, N=6, previously untreated patients, average age 76 years", "result": "well tolerated"}, {"measurement": "patients achieving CR", "setting": "[5]; among 18 patients with AML", "result": 4}, {"measurement": "patients achieving CR with incomplete platelet recovery", "setting": "[5]; among 18 patients with AML", "result": 1}, {"measurement": "antitumor activity", "setting": "[5]; an elderly patient with previously untreated AML", "result": "antitumor activity was observed"}, {"measurement": "maximal tolerated dose", "setting": "[5]; at 1.5 mg/kg/wk, N=6", "result": "without any evidence that a maximal tolerated dose has been reached"}, {"measurement": "exposure (AUC)", "setting": "[5]; doses 1.5 to 8 mg/kg", "result": "increased relative to dose"}, {"measurement": "tolerability", "setting": "[5]; doses up to 8 mg/kg/wk", "result": "well tolerated"}, {"measurement": "anti-SGN-33 immune responses", "setting": "[5]; first 15 patients tested", "result": "No anti-SGN-33 immune responses were detected"}, {"measurement": "Grade 4 adverse events considered related to antibody", "setting": "[5]; human, in vivo", "result": "none"}, {"measurement": "infusion reactions during subsequent doses", "setting": "[5]; human, in vivo", "result": "uncommon"}, {"measurement": "accumulation", "setting": "[5]; repeat dosing", "result": "accumulation was documented with repeat dosing"}, {"measurement": "Grade 3 adverse events considered related to antibody", "setting": "[5]; tumor lysis syndrome at 4 mg/kg, febrile neutropenia at 8 mg/kg", "result": 2}, {"measurement": "chills associated with the first infusion (most common drug-related adverse event)", "setting": "[5]; weekly iv doses of 1.5 to 8 mg/kg", "result": "11/31"}, {"measurement": "dose limiting toxicity", "setting": "[5]; weekly iv doses of 1.5 to 8 mg/kg, 31 patients", "result": "has not been observed"}, {"measurement": "CD33 tyrosine phosphorylation, soluble versus cross-linked antibody", "setting": "CD33 [6]; HL-60 and U937 cells, FIG. 2", "result": "more effective than cross-linked antibody"}, {"measurement": "CD33 tyrosine phosphorylation", "setting": "CD33 [6]; HL-60 and U937 cells, soluble or cross-linked antibody, compared with control human IgG1, FIG. 2", "result": "stimulated CD33 tyrosine phosphorylation"}, {"measurement": "CD33 tyrosine phosphorylation", "setting": "CD33 [6]; HL-60 cells, both soluble and cross-linked antibody, FIG. 1", "result": "stimulated CD33 tyrosine phosphorylation"}, {"measurement": "recruitment of SHP-2", "setting": "CD33 [7]; data not shown", "result": "did not recruit"}, {"measurement": "recruitment of Syk", "setting": "CD33 [7]; data not shown", "result": "did not recruit"}, {"measurement": "recruitment of SHP-1 to CD33", "setting": "CD33 [7]; soluble or cross-linked antibody, FIG. 3", "result": "recruited SHP-1 to CD33"}]}]}
